From BindingDB's records for doi:10.1046/j.1471-4159.2000.0752590.x (F. Hoffmann-La Roche, 2000)

Experiments:
[1] = target: Metabotropic glutamate receptor 1 (Homo sapiens, UniProt Q13255)
[2] = target: Metabotropic glutamate receptor 5 (Homo sapiens, UniProt P41594)
Sequence of Metabotropic glutamate receptor 5 (P41594 whole entry): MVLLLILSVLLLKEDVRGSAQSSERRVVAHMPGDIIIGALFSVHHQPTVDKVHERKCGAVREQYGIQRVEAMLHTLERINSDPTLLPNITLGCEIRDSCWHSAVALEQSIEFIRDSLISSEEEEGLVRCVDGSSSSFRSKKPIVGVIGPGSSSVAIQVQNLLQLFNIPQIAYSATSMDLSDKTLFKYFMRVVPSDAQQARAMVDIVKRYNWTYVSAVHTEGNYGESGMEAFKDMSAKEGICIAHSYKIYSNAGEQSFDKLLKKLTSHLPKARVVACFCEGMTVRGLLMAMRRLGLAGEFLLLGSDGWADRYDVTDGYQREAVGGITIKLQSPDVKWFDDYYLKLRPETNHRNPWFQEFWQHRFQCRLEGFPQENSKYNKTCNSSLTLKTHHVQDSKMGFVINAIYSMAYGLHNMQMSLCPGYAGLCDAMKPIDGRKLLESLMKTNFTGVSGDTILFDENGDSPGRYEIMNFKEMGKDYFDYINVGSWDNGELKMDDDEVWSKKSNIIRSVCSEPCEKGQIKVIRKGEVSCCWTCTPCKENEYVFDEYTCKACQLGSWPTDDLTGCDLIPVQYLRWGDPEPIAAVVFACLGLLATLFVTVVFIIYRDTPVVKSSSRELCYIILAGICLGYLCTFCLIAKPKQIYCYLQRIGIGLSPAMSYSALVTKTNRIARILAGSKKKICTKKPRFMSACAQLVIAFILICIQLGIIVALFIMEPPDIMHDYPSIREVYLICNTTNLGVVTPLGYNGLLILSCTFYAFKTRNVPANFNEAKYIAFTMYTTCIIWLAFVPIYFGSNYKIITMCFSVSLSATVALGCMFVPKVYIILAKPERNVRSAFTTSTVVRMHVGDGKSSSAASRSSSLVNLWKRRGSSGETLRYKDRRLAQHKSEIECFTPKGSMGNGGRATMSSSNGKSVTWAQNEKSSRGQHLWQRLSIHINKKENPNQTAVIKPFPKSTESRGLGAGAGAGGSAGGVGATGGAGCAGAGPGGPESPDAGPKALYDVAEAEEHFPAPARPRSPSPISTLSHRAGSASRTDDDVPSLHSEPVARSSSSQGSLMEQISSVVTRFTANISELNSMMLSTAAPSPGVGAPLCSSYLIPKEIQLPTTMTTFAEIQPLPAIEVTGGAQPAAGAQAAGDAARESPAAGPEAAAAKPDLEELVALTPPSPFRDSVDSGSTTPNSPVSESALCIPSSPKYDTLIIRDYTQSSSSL

Sequence of Metabotropic glutamate receptor 1 (Q13255 whole entry): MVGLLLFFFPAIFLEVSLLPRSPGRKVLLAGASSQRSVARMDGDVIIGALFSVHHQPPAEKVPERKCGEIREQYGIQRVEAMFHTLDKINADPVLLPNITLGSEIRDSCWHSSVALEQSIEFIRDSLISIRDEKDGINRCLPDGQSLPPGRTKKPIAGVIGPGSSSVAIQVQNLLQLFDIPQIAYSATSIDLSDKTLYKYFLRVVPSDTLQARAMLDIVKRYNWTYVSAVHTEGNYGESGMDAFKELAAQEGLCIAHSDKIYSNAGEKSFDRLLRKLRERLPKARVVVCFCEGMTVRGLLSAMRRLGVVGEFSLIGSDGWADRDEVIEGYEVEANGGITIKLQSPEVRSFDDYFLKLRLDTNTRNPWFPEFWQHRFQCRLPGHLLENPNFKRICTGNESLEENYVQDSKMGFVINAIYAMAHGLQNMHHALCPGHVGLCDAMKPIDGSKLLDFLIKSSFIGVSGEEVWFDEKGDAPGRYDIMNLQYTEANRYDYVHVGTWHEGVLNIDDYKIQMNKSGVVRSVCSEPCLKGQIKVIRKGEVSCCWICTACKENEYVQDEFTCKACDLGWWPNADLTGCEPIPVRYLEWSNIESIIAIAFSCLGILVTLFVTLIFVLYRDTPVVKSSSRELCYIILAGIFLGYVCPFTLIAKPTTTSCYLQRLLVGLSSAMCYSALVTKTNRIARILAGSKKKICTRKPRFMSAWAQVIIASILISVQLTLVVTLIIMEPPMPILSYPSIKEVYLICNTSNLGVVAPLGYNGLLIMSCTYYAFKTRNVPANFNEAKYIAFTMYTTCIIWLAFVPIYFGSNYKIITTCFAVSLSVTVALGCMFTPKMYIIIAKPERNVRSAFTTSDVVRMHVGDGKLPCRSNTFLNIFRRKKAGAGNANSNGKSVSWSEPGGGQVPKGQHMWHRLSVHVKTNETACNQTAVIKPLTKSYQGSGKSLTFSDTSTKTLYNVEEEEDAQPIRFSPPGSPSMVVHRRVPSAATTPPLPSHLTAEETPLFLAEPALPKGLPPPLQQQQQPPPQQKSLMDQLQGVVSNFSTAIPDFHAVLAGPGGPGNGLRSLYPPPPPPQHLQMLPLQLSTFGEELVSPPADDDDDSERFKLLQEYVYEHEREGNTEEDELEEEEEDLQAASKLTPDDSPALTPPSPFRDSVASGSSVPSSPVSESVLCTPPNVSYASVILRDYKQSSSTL

SMILES	Ki [1]	Ki [2]
N[C@@H](CCP(=O)(O)O)C(=O)O	> 10 µM	> 10 µM
NC(C(=O)O)c1ccc(C(=O)O)c(O)c1 (stereo unspecified)		2.5 µM
C[C@@](N)(C(=O)O)c1ccc(C(=O)O)cc1 (racemic)	> 10 µM	> 10 µM
NC1(C(=O)O)CCc2cc(C(=O)O)ccc21 (racemic) [AIDA]	> 10 µM	> 10 µM
N[C@@]1(C(=O)O)CC[C@H](C(=O)O)C1 [1S, 3R-ACPD]		2.1 µM
N[C@@H](Cn1oc(=O)[nH]c1=O)C(=O)O [2-amino-3-(3,5-dioxo[1,2,4]oxadiazolidin-2-yl)propionic acid]		0.029 µM
Cc1cc(C(N)C(=O)O)ccc1C(=O)O (stereo unspecified) [2Me4CPG]	0.7 µM	> 10 µM
Cc1onc(O)c1CC(N)C(=O)O (stereo not drawn) [(RS)-2-amino-3-(3-hydroxy-5-methylisoxazol-4-yl)-propionicacid]	> 10 µM	> 10 µM
N[C@H](C(=O)O)c1cccc(O)c1 [(S)-3-Hydroxyphenylglycine]	> 10 µM	8.4 µM
N[C@@H](C(=O)O)c1ccc(C(=O)O)cc1 [(S)-4CPG]	3.7 µM	> 10 µM
NC(C(=O)O)c1cc(=O)[nH]o1 (stereo unspecified) [Amino-(3-hydroxy-isoxazol-5-yl)-acetic acid(Ibotenic acid)]	1.2 µM	1.9 µM
N[C@H](CP(=O)(O)O)C(=O)O [CAS_23052-80-4]	> 10 µM	> 10 µM
Nc1nc(O)c2ncn(COC(CO)CO)c2n1 [CAS_82410-32-0]	0.9 µM	3.9 µM
NC(C(=O)O)c1cc(O)ccc1Cl (stereo unspecified) [CHPG]	> 10 µM	> 10 µM
N[C@H](C(=O)O)C1[C@@H](C(=O)O)[C@@H]1C(=O)O (stereo partly specified) [DCG-IV]	> 10 µM	> 10 µM
N[C@H](C(=O)O)[C@H]1C[C@H]1C(=O)O [L-CCG-IV]	2.3 µM	1.5 µM
O=c1nc2c3cc(-n4ccnc4)c([N+](=O)[O-])cc3[nH]c(=O)n2[nH]1 [Ro-48-8587]	> 10 µM	> 10 µM
